According to ChEMBL document CHEMBL1128241, “Molecular similarity matrices and quantitative structure-activity relationships: a case study with methodological implications” (J Med Chem, 1995):

Assay: Partition coefficient (logP)
Type: physicochemical
Conditions: octanol/water

**Q.** With `ClC(Cl)C(Cl)(Cl)Cl` [PENTACHLOROETHANE] as the compound, how does the logP read?
**A.** 5.72

**Q.** With `ClC=C(Cl)Cl` [TRICHLOROETHYLENE] as the compound, how does the logP read?
**A.** 0.96

**Q.** With `ClC(Cl)=C(Cl)Cl` [TETRACHLOROETHYLENE] as the compound, how does the logP read?
**A.** 1.27

Same assay, conditions: octanol/water; read-out: logP

**Q.** For `C/C(Cl)=C/Cl`, which logP is on record?
**A.** 1.79

**Q.** For `Cl/C=C/CCl` [1,3-DICHLOROPROPENE], which logP is on record?
**A.** 1.19

**Q.** With `ClCCCCl` as the compound, how does the logP read?
**A.** 1.74

**Q.** Which logP does the source give for `CCCCCBr` here?
**A.** 3.25

**Q.** Which logP does the source give for `CCCCCCl` here?
**A.** 3.11

**Q.** With `ClC(Cl)C(Cl)Cl` [1,1,2,2-TETRACHLOROETHANE] as the compound, how does the logP read?
**A.** 2.66

**Q.** With `ClCC(Cl)CCl` [1,2,3-TRICHLOROPROPANE] as the compound, how does the logP read?
**A.** 2.01

**Q.** With `CC(C)(C)Cl` as the compound, how does the logP read?
**A.** 2.44

**Q.** For `CC(C)(Cl)Cl`, which logP is on record?
**A.** 2.34

**Q.** For `CCCCCCCCBr`, which logP is on record?
**A.** 4.87

**Q.** For `CC(C)=CBr`, which logP is on record?
**A.** 1.8

**Q.** Which logP does the source give for `CC(C)(C)Br` here?
**A.** 2.45

**Q.** With `ClC(Br)Br` [DIBROMOCHLOROMETHANE] as the compound, how does the logP read?
**A.** 2.48

**Q.** With `BrC(Br)Br` [BROMOFORM] as the compound, how does the logP read?
**A.** 2.38

**Q.** With `FC(Cl)(Cl)Cl` [TRICHLOROMONOFLUOROMETHANE] as the compound, how does the logP read?
**A.** 2.29

**Q.** For `CC(Cl)Cl`, which logP is on record?
**A.** 1.8

**Q.** With `C=C(CCl)CCl` as the compound, how does the logP read?
**A.** 2.01

**Q.** For `CCBr` [BROMOETHANE], which logP is on record?
**A.** 1.63

**Q.** For `ClCCCBr`, which logP is on record?
**A.** 1.88

**Q.** Which logP does the source give for `CC(Cl)(Cl)Cl` [TRICHLOROETHANE] here?
**A.** 2.5

**Q.** For `CCCCCCCl`, which logP is on record?
**A.** 3.65

**Q.** Which logP does the source give for `ClCCCCBr` here?
**A.** 2.42

**Q.** For `ClC(Cl)(Cl)Cl` [CARBON TETRACHLORIDE], which logP is on record?
**A.** 2.83

**Q.** For `CCC(C)Br` (stereo not drawn), which logP is on record?
**A.** 2.71

**Q.** For `CC(C)CCBr`, which logP is on record?
**A.** 3.12

**Q.** Which logP does the source give for `C=C(Cl)CCl` here?
**A.** 1.75

**Q.** With `CC(Cl)C(C)Cl` (stereo not drawn) as the compound, how does the logP read?
**A.** 2.56

**Q.** For `CCC(C)CBr` (stereo not drawn), which logP is on record?
**A.** 3.12

**Q.** With `CCC(C)(C)Br` as the compound, how does the logP read?
**A.** 2.99

**Q.** Which logP does the source give for `CC(Br)CCl` (stereo not drawn) here?
**A.** 2.16

**Q.** Which logP does the source give for `CC(C)CCl` here?
**A.** 2.44

**Q.** With `ClC(Cl)(Cl)Br` as the compound, how does the logP read?
**A.** 3.1

**Q.** Which logP does the source give for `CC(Cl)CCCl` (stereo not drawn) here?
**A.** 2.28

**Q.** Which logP does the source give for `ClCC(Cl)(Cl)Cl` here?
**A.** 3.05

**Q.** For `Cl/C=C/Cl`, which logP is on record?
**A.** 0.65

**Q.** With `ClC(Cl)(Cl)C(Cl)(Cl)Cl` [HEXACHLOROETHANE] as the compound, how does the logP read?
**A.** 4.62

**Q.** For `ClCCl` [METHYLENE CHLORIDE], which logP is on record?
**A.** 1.26

**Q.** For `CC(C)CBr`, which logP is on record?
**A.** 2.58

**Q.** For `CC(C)=CCl`, which logP is on record?
**A.** 1.89

**Q.** For `ClCBr`, which logP is on record?
**A.** 1.4

**Q.** For `ClCCBr`, which logP is on record?
**A.** 1.62

**Q.** Which logP does the source give for `ClC(Cl)Br` [BROMODICHLOROMETHANE] here?
**A.** 2.67

**Q.** With `CCC(C)Cl` (stereo not drawn) as the compound, how does the logP read?
**A.** 2.57

**Q.** With `CCCCCCCCCl` as the compound, how does the logP read?
**A.** 4.85

**Q.** For `CCCCBr` [1-BROMOBUTANE], which logP is on record?
**A.** 2.71

**Q.** For `C=C(C)CCl`, which logP is on record?
**A.** 1.89

**Q.** Which logP does the source give for `FC(Cl)(Br)Br` here?
**A.** 2.8

**Q.** For `C=C(Cl)Cl` [1,1-DICHLOROETHENE], which logP is on record?
**A.** 1.21

**Q.** Which logP does the source give for `CC(Cl)CCl` (stereo not drawn) here?
**A.** 2.02

**Q.** With `ClCC=C(Cl)Cl` as the compound, how does the logP read?
**A.** 1.5
